This is an account of results in patent publication US20050181376A1, “Antisense modulation of microsomal triglyceride transfer protein expression” (ISIS Pharmaceuticals, Inc., priority 2001, published 2005).

For the data set, the system named is mouse microsomal triglyceride transfer protein mRNA. Kind of data set: Antisense inhibition of mouse microsomal triglyceride transfer protein mRNA levels in primary hepatocytes, quantitative real-time PCR. In kind it is cell-based. Also on record: concentration or dose not given beside the values. Particulars: averages from two experiments. As to the method:
Primary mouse hepatocytes were prepared from CD-1 mice purchased from Charles River Labs (Wilmington, Mass.) and were routinely cultured in Hepatocyte Attachment Media (Gibco) supplemented with 10% Fetal Bovine Serum (Gibco/Life Technologies, Gaithersburg, Md.), 250 nM dexamethasone (Sigma), and 10 nM bovine insulin (Sigma). Cells were seeded into 96-well plates (Falcon-Primaria #3872) at a density of 10000 cells/well for use in RT-PCR analysis.
Cells were harvested 16-24 hours after oligonucleotide treatment.
All cytidine residues are 5-methylcytidines. […] Data are averages from two experiments. If present, “N.D.” indicates “no data”.
For orientation: In qPCR the cycle at which signal appears reflects the starting amount.

Strand notation (5' to 3'): a small letter for the sugar, then the base; units joined by * are phosphorothioate-linked, units joined directly phosphodiester-linked; [ ] holds rarer units or linkages, { } end groups; capitals alone tell only the bases. e = 2'-O-(2-methoxyethyl) (MOE); [5mC] = 5-methylcytosine; d = 2'-deoxy (DNA)

On to “144467 (eG*e[5mC]*eT*e[5mC]*e[5mC]*d[5mC]*dT*d[5mC]*dT*dG*d[5mC]*d[5mC]*dA*d[5mC]*dA*eT*e[5mC]*e[5mC]*eA*eG; antisense) [compound 144467]”, for which the “% INHIB (inhibition of mouse microsomal triglyceride transfer protein mRNA levels)” value (shortened to “% INHIB”) is listed as 0%.

For the substance “144468 (eG*eA*eT*e[5mC]*eA*dT*dG*d[5mC]*dT*dG*dG*d[5mC]*dT*d[5mC]*d[5mC]*e[5mC]*eT*e[5mC]*eT*eG; antisense) [compound 144468]”, the “% INHIB” value came out at 0%.

As for “144469 (eG*eA*eG*eT*eA*d[5mC]*dG*dT*dG*dA*dG*d[5mC]*dT*dT*dG*eT*eA*eT*eA*eG; antisense) [compound 144469]”, the “% INHIB” value was 0%.

With “144470 (eG*eT*eA*eG*e[5mC]*d[5mC]*d[5mC]*dA*d[5mC]*dG*d[5mC]*dT*dG*dT*d[5mC]*eT*eT*eG*e[5mC]*eG; antisense) [compound 144470]”, the “% INHIB” value is reported as 5%.

“144471 (e[5mC]*eA*eT*e[5mC]*eA*d[5mC]*d[5mC]*dA*dT*d[5mC]*dA*dG*dG*dA*dT*eT*e[5mC]*e[5mC]*eT*e[5mC]; antisense) [compound 144471]”: the “% INHIB” value stood at 21%.

As for “144472 (eG*e[5mC]*e[5mC]*e[5mC]*eT*dG*dG*dA*dA*dG*dA*dT*dG*d[5mC]*dT*e[5mC]*eT*eT*e[5mC]*eT; antisense) [compound 144472]”, the “% INHIB” value is 0%.

Take “144473 (eG*e[5mC]*e[5mC]*eT*e[5mC]*d[5mC]*dA*dG*dG*dT*dT*dG*dT*d[5mC]*d[5mC]*eT*eT*e[5mC]*e[5mC]*e[5mC]; antisense) [compound 144473]”: the “% INHIB” value stood at 1%.

In the case of “144474 (eT*eA*eG*eA*eA*d[5mC]*dT*d[5mC]*d[5mC]*dT*dT*dG*dA*d[5mC]*d[5mC]*eT*eT*e[5mC]*e[5mC]*e[5mC]; antisense) [compound 144474]”, the “% INHIB” value is listed as 16%.

As for “144475 (eT*eG*eG*eA*eA*dT*dA*dA*dG*d[5mC]*dT*dA*dG*d[5mC]*d[5mC]*eA*eA*eG*e[5mC]*e[5mC]; antisense) [compound 144475]”, the “% INHIB” value worked out at 18%.

On to “144476 (e[5mC]*e[5mC]*e[5mC]*eA*eG*dA*dG*dA*dT*dA*dT*d[5mC]*dT*dA*d[5mC]*e[5mC]*eT*e[5mC]*eG*eT; antisense) [compound 144476]”, for which the “% INHIB” value is 19%.

Turning to “144477 (e[5mC]*e[5mC]*e[5mC]*eA*eG*d[5mC]*dA*d[5mC]*d[5mC]*dT*dG*dG*dT*dT*dT*eG*e[5mC]*e[5mC]*eG*eT; antisense) [compound 144477]”, the “% INHIB” value is 94%.

For the substance “144478 (e[5mC]*e[5mC]*e[5mC]*eT*eG*dG*dT*d[5mC]*dT*d[5mC]*dT*dT*d[5mC]*dT*dG*e[5mC]*eA*eA*eG*e[5mC]; antisense) [compound 144478]”, the “% INHIB” value is listed as 41%.

Regarding “144479 (e[5mC]*eA*e[5mC]*e[5mC]*eT*dG*d[5mC]*d[5mC]*dA*d[5mC]*dT*dT*dG*d[5mC]*dT*eT*e[5mC]*e[5mC]*e[5mC]*eG; antisense) [compound 144479]”, the “% INHIB” value was 65%.

For “144480 (eG*e[5mC]*eT*e[5mC]*eG*dA*dG*dG*dA*d[5mC]*d[5mC]*dT*dG*dT*d[5mC]*e[5mC]*e[5mC]*eA*e[5mC]*eA; antisense) [compound 144480]”, the “% INHIB” value turned out to be 51%.

Regarding “144481 (eT*eT*e[5mC]*e[5mC]*eA*dG*dT*dG*d[5mC]*dT*d[5mC]*d[5mC]*dG*d[5mC]*d[5mC]*eA*eG*eA*eG*eA; antisense) [compound 144481]”, the “% INHIB” value came out at 33%.

Consider “144482 (eG*eA*eA*eG*eT*d[5mC]*d[5mC]*dG*dG*dA*dG*dG*dT*dG*d[5mC]*eT*eG*eG*eA*eT; antisense) [compound 144482]”, for which the “% INHIB” value is recorded as 3%.

On to “144483 (e[5mC]*eA*eG*eA*eG*dG*dT*dG*dA*d[5mC]*dG*dG*d[5mC]*dA*dT*e[5mC]*e[5mC]*eA*e[5mC]*e[5mC]; antisense) [compound 144483]”, for which the “% INHIB” value was found to be 22%.

For the substance “144484 (e[5mC]*e[5mC]*eT*eG*eG*dA*dG*dT*dA*dT*dG*dA*dT*dA*d[5mC]*eT*eG*e[5mC]*eT*eG; antisense) [compound 144484]”, the “% INHIB” value is 48%.

“144485 (e[5mC]*eT*e[5mC]*eT*eG*dA*dT*dG*dT*d[5mC]*dG*dT*dT*dG*d[5mC]*eT*eT*eG*e[5mC]*eA; antisense) [compound 144485]”: the “% INHIB” value is 50%.

As for “144486 (eA*eT*eT*e[5mC]*eT*dG*dA*d[5mC]*dA*d[5mC]*dA*dG*d[5mC]*dT*dT*e[5mC]*e[5mC]*eT*eG*eA; antisense) [compound 144486]”, the “% INHIB” value stood at 34%.

For “144487 (e[5mC]*e[5mC]*e[5mC]*eA*eG*dG*dA*dT*d[5mC]*dA*dG*d[5mC]*dT*dT*d[5mC]*eT*eT*eA*eG*e[5mC]; antisense) [compound 144487]”, the “% INHIB” value stood at 19%.

With “144488 (e[5mC]*eA*eG*e[5mC]*e[5mC]*dT*d[5mC]*dA*dG*d[5mC]*dA*dT*dA*d[5mC]*dT*eT*e[5mC]*eA*eG*eA; antisense) [compound 144488]”, the “% INHIB” value is on record as 35%.

Turning to “144489 (eG*eT*eG*eG*e[5mC]*dT*dG*dA*d[5mC]*dG*dG*dG*d[5mC]*d[5mC]*d[5mC]*eT*eT*e[5mC]*eT*e[5mC]; antisense) [compound 144489]”, the “% INHIB” value is reported as 42%.

For the substance “144490 (eA*e[5mC]*eG*eA*eT*dT*d[5mC]*dT*dG*dG*dT*dG*dG*dT*dA*eT*eA*eT*e[5mC]*e[5mC]; antisense) [compound 144490]”, the “% INHIB” value came to 23%.

With “144491 (e[5mC]*eA*eG*e[5mC]*eA*dG*d[5mC]*dG*dG*d[5mC]*dA*dG*dT*dT*dG*eT*eG*e[5mC]*eG*e[5mC]; antisense) [compound 144491]”, the “% INHIB” value is given as 26%.

As to “144492 (eT*eG*e[5mC]*eA*e[5mC]*dA*dA*d[5mC]*dG*dG*dT*dG*dA*dG*d[5mC]*eA*eT*eG*eT*eA; antisense) [compound 144492]”, the “% INHIB” value is 39%.

“144493 (eG*e[5mC]*e[5mC]*eA*eG*dT*dA*dT*dA*dG*dG*d[5mC]*dA*dG*dA*eA*eG*eA*eG*eG; antisense) [compound 144493]”: the “% INHIB” value worked out at 24%.

For “144494 (eA*eA*eG*eG*e[5mC]*dT*dG*dT*dA*dT*dG*dT*dG*dG*dA*e[5mC]*eG*e[5mC]*eT*eG; antisense) [compound 144494]”, the “% INHIB” value is recorded as 27%.

For the substance “144495 (e[5mC]*eA*eG*eA*eA*dT*dG*d[5mC]*d[5mC]*dA*dG*dA*dG*d[5mC]*d[5mC]*eA*eG*eA*eG*eT; antisense) [compound 144495]”, the “% INHIB” value is on record as 42%.

Turning to “144496 (e[5mC]*eT*eG*e[5mC]*eA*dA*dT*dT*dA*dA*dG*d[5mC]*d[5mC]*dT*dT*e[5mC]*e[5mC]*eA*eG*e[5mC]; antisense) [compound 144496]”, the “% INHIB” value amounted to 40%.

Turning to “144497 (e[5mC]*eT*e[5mC]*eT*e[5mC]*d[5mC]*dT*dT*d[5mC]*dA*dT*d[5mC]*dA*dG*dG*eA*eG*eT*eG*eG; antisense) [compound 144497]”, the “% INHIB” value was 57%.

As for “144498 (eT*eG*eA*e[5mC]*eA*dT*dG*d[5mC]*d[5mC]*dA*dG*d[5mC]*dA*dT*dA*eA*eG*eA*eG*eT; antisense) [compound 144498]”, the “% INHIB” value is on record as 44%.

In the case of “144499 (e[5mC]*eG*e[5mC]*eT*eG*dA*d[5mC]*dA*dG*dG*dG*dT*d[5mC]*dG*d[5mC]*e[5mC]*eG*eG*eA*eT; antisense) [compound 144499]”, the “% INHIB” value worked out at 38%.

As for “144500 (e[5mC]*e[5mC]*e[5mC]*eT*eT*dT*d[5mC]*dA*d[5mC]*d[5mC]*dA*d[5mC]*dG*d[5mC]*dT*eG*eA*e[5mC]*eA*eG; antisense) [compound 144500]”, the “% INHIB” value came out at 34%.

As for “144501 (eG*eA*e[5mC]*e[5mC]*eA*d[5mC]*d[5mC]*d[5mC]*dT*dG*dG*dA*dT*d[5mC]*dT*e[5mC]*e[5mC]*eA*eT*eA; antisense) [compound 144501]”, the “% INHIB” value came to 52%.

For the substance “144502 (e[5mC]*eT*e[5mC]*eG*e[5mC]*dG*dA*dT*dA*d[5mC]*d[5mC]*dA*d[5mC]*dA*dG*eA*e[5mC]*eT*eG*eA; antisense) [compound 144502]”, the “% INHIB” value turned out to be 51%.

For the substance “144503 (eG*eT*eT*eA*eT*d[5mC]*dA*d[5mC]*d[5mC]*dA*d[5mC]*dA*dG*d[5mC]*d[5mC]*eA*e[5mC]*e[5mC]*e[5mC]*eG; antisense) [compound 144503]”, the “% INHIB” value came to 50%.

For the substance “144504 (eG*eA*eA*e[5mC]*eT*d[5mC]*d[5mC]*dA*dG*d[5mC]*d[5mC]*d[5mC]*dA*dG*d[5mC]*e[5mC]*eT*e[5mC]*eT*eG; antisense) [compound 144504]”, the “% INHIB” value came out at 0%.
